Like-named read-outs stand apart in the source and are kept apart here.
How the values were obtained:
[1] = Storage stability: impurity content by HPLC; format: physicochemical; conditions: 5° C.±3° C.
Description: The HPLC chromatographic method used included an assembly fitted with an automatic injector and variable wavelength UV detector set at 267 nm. The column was stainless steel with a length of 150 mm and diameter of 3.9 mm and filled with octadecylsilyl silica gel—300 Å—spherical, 5 μm. The mobile phase was carried out with sodium decanesulfonate (1.2217 g), phosphate buffer 0.05 M (pH=4.2) 380 ml, and methanol (620 ml), with a thermostatically-controlled column temperature of +40° C. and a mobile phase flow rate of 1 ml/min.
Each batch was stored over the analysis time at 5° C.±3° C.

[2] = 5° C.±3° C., aqueous vinorelbine 10 mg/ml as base
Description: In this experiment, pure powder form vinorelbine was compared to soft capsule encapsulated vinorelbine liquid fill composition of the invention (Formula 1.). Coloration was measured at 5° C.±3° C. by ultraviolet absorbance at 420 nm of aqueous vinorelbine at 10 mg/ml expressed as vinorelbine base. […] Mean variation was calculated as from the difference between the average of the results at the per given analysis time and the average of the results at the initial time (t0) for several batches (3 batches for the vinorelbine powder, 3 batches for the 20 mg soft capsules, 4 batches for the 30 mg soft capsules, 3 batches for the 40 mg soft capsules, 3 batches for the 80 mg soft capsules.)

CCC1=C[C@@H]2CN(C1)Cc1c([nH]c3ccccc13)[C@@](C(=O)OC)(c1cc3c(cc1OC)N(C)[C@H]1[C@@](O)(C(=O)OC)[C@H](OC(C)=O)[C@]4(CC)C=CCN5CC[C@]31[C@@H]54)C2 [Vinorelbine (powder), 3′,4′-didehydro-4′-deoxy-C′-norvincaleucoblastine]
Impurity content, max. variation (t0→analysis time) ([1]; 6 months): 0.21 Relative Area Percent | Impurity content, mean variation (t0→analysis time) ([1]; 6 months): 0.12 Relative Area Percent | Impurity content, max. variation (t0→analysis time) ([1]; 12 months): 0.44 Relative Area Percent | Impurity content, mean variation (t0→analysis time) ([1]; 12 months): 0.39 Relative Area Percent | Impurity content, max. variation (t0→analysis time) ([1]; 18 months): 0.85 Relative Area Percent | Impurity content, mean variation (t0→analysis time) ([1]; 18 months): 0.78 Relative Area Percent | Impurity content, max. variation (t0→analysis time) ([1]; 24 months): 1.32 Relative Area Percent | Impurity content, mean variation (t0→analysis time) ([1]; 24 months): 1.13 Relative Area Percent | Color evolution (absorbance at 420 nm), max. variation (t0→analysis time) ([2]; 6 months): 0.012 | Color evolution (absorbance at 420 nm), mean variation (t0→analysis time) ([2]; 6 months): 0.006 | Color evolution (absorbance at 420 nm), max. variation (t0→analysis time) ([2]; 12 months): 0.015 | Color evolution (absorbance at 420 nm), mean variation (t0→analysis time) ([2]; 12 months): 0.013 | Color evolution (absorbance at 420 nm), max. variation (t0→analysis time) ([2]; 18 months): 0.025 | Color evolution (absorbance at 420 nm), mean variation (t0→analysis time) ([2]; 18 months): 0.017 | Color evolution (absorbance at 420 nm), max. variation (t0→analysis time) ([2]; 24 months): 0.041 | Color evolution (absorbance at 420 nm), mean variation (t0→analysis time) ([2]; 24 months): 0.029
